Test results from patent EP2272817A1, “PAI-1 INHIBITOR” (Institute of Medicinal Molecular Design, Inc., priority 2008, dated 2009).

Target: recombinant human PAI-1 (Homo sapiens, UniProt P05121)
Assay: Test Example 2: Human PAI-1 Inhibitory Activity (pH 7.4 HEPES buffer, 10 minutes incubation with two-chain tPA)
Assay type: biochemical
Parameters: purchased Molecular Innovations, Inc
Details: read-out: Inhibition Rate of PAI-1 Activity (%)
Experimental: 0.1 M HEPES, 0.1 M NaCl. 1 mM EDTA. 0.1 % Polyethylene glycol 8,000 (Hampton Research Corporation),
2 mM Dimethyldecylphoshine oxide [Apo-10] (Fluka Corporation)

Sequence of recombinant human PAI-1 (P05121 24-402): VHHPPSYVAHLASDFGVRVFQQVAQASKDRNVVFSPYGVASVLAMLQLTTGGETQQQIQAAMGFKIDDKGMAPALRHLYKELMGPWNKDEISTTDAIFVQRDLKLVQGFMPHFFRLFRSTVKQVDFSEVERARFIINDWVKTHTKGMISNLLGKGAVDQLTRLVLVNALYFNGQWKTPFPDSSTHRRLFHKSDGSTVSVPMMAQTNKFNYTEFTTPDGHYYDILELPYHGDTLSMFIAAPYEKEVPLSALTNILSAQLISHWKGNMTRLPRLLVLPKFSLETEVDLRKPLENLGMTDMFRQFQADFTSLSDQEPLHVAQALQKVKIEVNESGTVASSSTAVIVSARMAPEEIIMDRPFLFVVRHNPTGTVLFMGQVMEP

Row | Structure (SMILES) | inhibition at 0.1 µM [%] | inhibition at 0.3 µM [%] | inhibition at 1 µM [%] | inhibition at 3 µM [%] | inhibition at 10 µM [%] | inhibition at 25 µM [%]
1 | CCCCN(CC(=O)O)c1cc(-c2ccc(OC(F)(F)F)cc2)ccc1OCCCCc1ccccc1 [Compound 433] | 13 | 6 | 41 | 98 | – | –
2 | CC(C)(C)c1ccc(Oc2ccc(-c3cccc(OC(F)(F)F)c3)cc2OCC(=O)O)cc1 [Compound 329] | 6 | 11 | 28 | 98 | – | –
3 | CC(C)(C)c1ccc(Oc2cc(-c3ccc(F)cc3)ccc2OCC(=O)O)cc1 [Compound 459] | 26 | 31 | 42 | 86 | – | –
4 | CCCCCOc1ccc(-c2cc(C)cc(C)c2)cc1N(CCCCc1ccccc1)C(=O)C(=O)O [Compound 672] | 3 | 15 | 92 | > 99 | – | –
5 | CCCCCCCOc1ccc(-c2ccc(OC(F)(F)F)cc2)cc1N(CCCCc1ccccc1)C(=O)C(=O)O [Compound 352] | 0 | 4 | 72 | 90 | – | –
6 | COc1ccc(-c2ccc(OCC(=O)O)c(Oc3ccc(C(C)(C)C)cc3)c2)cc1 [Compound 445] | 0 | 1 | 12 | 50 | – | –
7 | CCCCOc1ccc(Oc2cc(-c3ccc(OC(F)(F)F)cc3)ccc2CCC(=O)O)cc1 [Compound 461] | 1 | 26 | 95 | 98 | – | –
8 | CCCCC1CCC(Oc2ccc(-c3ccc(OC(F)(F)F)cc3)cc2N(CCCCc2ccccc2)C(=O)C(=O)O)CC1 (stereo not shown) [Compound 637] | 0 | 5 | 80 | 71 | – | –
9 | O=C(O)CCc1ccc(-c2ccc(OC(F)(F)F)cc2)cc1OC(c1ccccc1)c1ccccc1 [Compound 507] | 6 | 8 | 49 | > 99 | – | –
10 | CCCCc1ccc(Oc2cc(-c3ccc(OC(F)(F)F)cc3)ccc2CCC(=O)O)cc1 [Compound 512] | 18 | 41 | 96 | 98 | – | –
11 | CCCCOc1cccc(Oc2cc(-c3ccc(OC(F)(F)F)cc3)ccc2CCC(=O)O)c1 [Compound 472] | 15 | 14 | 71 | > 99 | – | –
12 | CCCCCCCCCCOc1ccc(-c2ccc(OC(F)(F)F)cc2)cc1N(CCCCc1ccccc1)C(=O)C(=O)O [Compound 365] | 41 | 97 | 97 | 92 | – | –
13 | CCCCC(Oc1cc(-c2cccc(C)c2)ccc1Oc1ccc(C(C)(C)C)cc1)C(=O)O (stereo not shown) [Compound 317] | 14 | 16 | 79 | 94 | – | –
14 | O=C(O)/C=C/c1ccc(-c2ccc(OC(F)(F)F)cc2)cc1Sc1ccccc1 [Compound 528] | 8 | 12 | 51 | 97 | – | –
15 | CC(C)(C)c1ccc(Oc2cc(-c3ccc(C(C)(C)C)cc3)ccc2CCC(=O)O)cc1 [Compound 497] | 3 | 24 | > 99 | > 99 | – | –
16 | CCCCC(Oc1cc(Oc2ccc(OC(F)(F)F)cc2)ccc1OCc1ccc(C(C)(C)C)cc1)C(=O)O (stereo not shown) [Compound 308] | 0 | 22 | 63 | 95 | – | –

Row | Structure (SMILES) | inhibition at 0.1 µM [%] | inhibition at 0.3 µM [%] | inhibition at 1 µM [%] | inhibition at 3 µM [%] | inhibition at 10 µM [%] | inhibition at 25 µM [%]
17 | CCCCCCCCCCCCCCCOc1cc(-c2ccc(OC(F)(F)F)cc2)ccc1N(CCCCc1ccccc1)C(=O)C(=O)O [Compound 385] | 74 | > 99 | > 99 | > 99 | – | –
18 | CCCCCCCCOc1ccc(-c2ccc(OC(F)(F)F)cc2)cc1N(CCCCc1ccccc1)C(=O)C(=O)O [Compound 353] | 6 | 19 | 87 | 87 | – | –
19 | CC(C)(C)c1ccc(CN(C(=O)CCCC(=O)O)c2ccc(-c3ccc(OC(F)(F)F)cc3)cc2)cc1 [Compound 604] | – | – | 0 | 20 | 36 | 46
20 | CC(CCOc1ccc(-c2ccc(OC(F)(F)F)cc2)cc1OCc1ccc(C(C)(C)C)cc1)C(=O)O (stereo not shown) [Compound 482] | 7 | 12 | 52 | > 99 | – | –
21 | O=C(O)C(=O)N(Cc1ccc(-c2ccc(OC(F)(F)F)cc2)cc1)c1ccccc1-c1ccccc1 [Compound 632] | 0 | 9 | 31 | 97 | – | –
22 | CC(C)(C)c1cccc(Oc2ccc(-c3ccc(OC(F)(F)F)cc3)cc2CCC(=O)O)c1 [Compound 438] | 13 | 11 | 50 | > 99 | – | –
23 | CCCCCCC(Oc1cc(-c2ccc(OC(F)(F)F)cc2)ccc1Oc1ccccc1)C(=O)O (stereo not shown) [Compound 322] | 0 | 4 | 69 | 92 | – | –
24 | Cc1cccc(-c2ccc(Oc3ccc(C(C)(C)C)cc3)c(OCC(=O)O)c2)c1 [Compound 316] | 10 | 8 | 28 | 84 | – | –
25 | O=C(O)C(=O)N(Cc1ccc2ccccc2c1)c1ccc(-c2ccc(OC(F)(F)F)cc2)cc1 [Compound 661] | 6 | 11 | 27 | > 99 | – | –
26 | CCCCOc1ccc(-c2ccc(OCC(=O)O)c(Oc3ccc(C(C)(C)C)cc3)c2)cc1 [Compound 468] | 1 | 5 | 86 | 97 | – | –
27 | CC(C)(C)c1ccc(Oc2cc(-c3ccc(OC(F)(F)F)cc3)ccc2/C=C\C(=O)O)cc1 [Compound 450] | 9 | 11 | 58 | 98 | – | –
28 | CCC(CC)Oc1ccc(-c2ccc(/C=C/C(=O)O)c(Oc3ccc(C(C)(C)C)cc3)c2)cc1 [Compound 521] | 25 | 82 | > 99 | > 99 | – | –
29 | CCCCCOc1ccc(-c2ccc(F)cc2)cc1N(CCCCc1ccccc1)C(=O)C(=O)O [Compound 359] | 1 | 7 | 26 | 96 | – | –
30 | CCCCC(Oc1ccc(-c2ccc(OC(F)(F)F)cc2)cc1OCCCCc1ccccc1)C(=O)O (stereo not shown) [Compound 311] | 0 | 11 | 77 | 97 | – | –
31 | CCCCC(Oc1ccc(-c2cccc(C(F)(F)F)c2)cc1Oc1ccc(C(C)(C)C)cc1)C(=O)O (stereo not shown) [Compound 320] | 1 | 9 | 70 | 98 | – | –
